Data published in US12478592B2, “Dosage regime with esketamine for treating neuropsychiatric or neurological conditions” (priority 2019, dated 2025).

Assays:
[1] = system: human peripheral blood lymphocytes (HPBL)
Description: The clastogenic potential of esketamine was evaluated in the in vitro mammalian chromosome aberration test using human peripheral blood lymphocytes (HPBL) in both the absence and presence of an induced metabolic activation system (the 9000 g supernatant [S9] microsomal fraction of liver homogenate from rats exposed to Aroclor-1254).
The study was conducted in 2 phases, with a preliminary toxicity test used to determine the appropriate concentrations for the definitive chromosomal aberration assay. Water was used as a negative (vehicle) control. Toxicity (defined as ≥45% reduction in MI relative to the vehicle control) was evaluated at 9 concentrations, ranging from 0.0238 to 238 μg/ml, after exposure of HPBL to esketamine for 20 hours in the absence of S9 activation, or for 4 hours, either in the presence or absence of S9 activation, followed by a 16-hour recovery period.
The definitive chromosome aberration assay evaluated HPBL cells after exposure to esketamine for 20 hours in the absence of S9 activation, or for 4 hours, either in the presence of absence of S9 activation, followed by a 16-hour recovery. Positive controls for chromosomal aberrations in non-activated and S9-activated evaluations, respectively, consisted of mitomycin C (MMC, 0.6 and 0.3 μg/mL for the 4- and 20-hour exposures, respectively) and cyclophosphamide (CP, 2.5, 5, and 7.5 μg/mL). […] Initially, the doses selected for evaluation of chromosomal aberrations were 60, 120, and 238 μg/mL for the non-activated 4- and 20-hour treatment conditions; and 30, 60, and 200 μg/mL for the S9-activated 4-hour treatment condition.

[2] = Single dose crossover study in healthy volunteers, pharmacokinetics
Source text: A randomized, open-label 4-way crossover study in 16 healthy male and female subjects was held wherein said subjects were placed in a randomly assigned order and administered esketamine. Each subject was assigned to 1 of 4 treatment sequences according to a randomization code such that 4 subjects were assigned to each treatment sequence. There was a wash-out period of at least 7 days between dosing periods with doses consisting of either oral or intravenous esketamine hydrochloride. The study consisted of an eligibility screening period of 28 days, 4 study periods involving administration of a single dose of esketamine hydrochloride followed by safety assessments with blood sampling for PK purposes up to 72 hours after study drug administration, discharge at 72 hours after study drug administration and a follow-up visit 7-14 days after the last PK blood sample was taken on Day 4.

[3] = system: human peripheral blood lymphocytes (HPBL); remark: listed apart in the source
Description: The clastogenic potential of (S)-norketamine was evaluated in the in vitro mammalian chromosome aberration test using human peripheral blood lymphocytes (HPBL) in both the absence and presence of an induced metabolic activation system (the 9000 g supernatant [S9] microsomal fraction of liver homogenate from rats exposed to phenobarbital/5,6-benzoflavone).
The study was conducted in 2 phases, with a preliminary toxicity test used to determine the appropriate concentrations for the definitive chromosomal aberration assay. Water was used as a negative (vehicle) control. In both phases, the cells were treated for 3 and 21 hours in the absence of S9 mix and for 3 hours in the presence of S9 mix. The mitotic index was assessed for all cultures to determine cytotoxicity. Ten concentrations, ranging from 2.62 to 260.16 μg/mL, were evaluated in the preliminary toxicity test. […] (S)-Norketamine concentrations of 93.66, 156.10 or 260.16 μg/mL were selected for metaphase analysis.

[4] = Repeated dose 28 day study, toxicokinetics; details: for Dose normalized AUC0-inf: Day 1
Description: The objective of the study was to assess the potential toxicity, neurobehavioral effects, and toxicokinetics (TK) of esketamine when administered orally, via gavage, to Sprague Dawley rats for 28 days and to evaluate recovery during a 14-day drug-free period. Fifty male and 50 female rats were randomized into 4 groups (15/sex/Groups 1 and 4; 10/sex/Groups 2 and 3). Esketamine was administered via oral gavage once daily for 28 consecutive days to males at 0 (vehicle control), 6, 10 or 30 mg/kg/day and females at 0 (vehicle control), 2, 10 or 20 mg/kg/day in a dose volume of 10 mL/kg. Animals were observed until euthanized and necropsied on Day 29 (10/sex/group) or 43 (5/sex from Groups 1 and 4). Toxicity was evaluated based on mortality, clinical observations, body weights, food consumption, ophthalmology, motor activity, functional observational battery, clinical pathology (clinical chemistry, hematology, coagulation and urinalysis), organ weights, anatomic (macroscopic or microscopic) pathology. Toxicokinetic animals (3/sex/Group 1; 6/sex/Groups 2, 3, and 4) were similarly dosed and bled on Day 1 and during Week 4 for toxicokinetic analysis.

Sprague Dawley rats [5] = assay: Repeated dose 28 day study, toxicity; assay type: in vivo; details: 28 days oral gavage; males 6, 10, 30 and females 2, 10, 20 mg/kg/day
Sprague Dawley rats [6] = assay: 104 week carcinogenicity study; assay type: in vivo; details: after 28 days at point of departure doses and at reduced doses after 730 days
Description: A 104 Week carcinogenicity study of esketamine administered via oral gavage to Sprague Dawley Rats is performed to evaluate the carcinogenic potential and determine the toxicokinetics of esketamine.
The study end-points include clinical observations, body weight changes, food consumption, bioanalytical toxicokinetic analysis, and anatomic macroscopic and microscopic pathology findings.

male Sprague Dawley rats = assay: 7-day forced swim test; assay type: in vivo; details: 15 mg/kg i.p., single acute dose
Description: Groups of, 6-7 week old, male Sprague Dawley rats were administered esketamine by intraperitoneal injection and their behavioral despair assessed by a forced swim test. The animals, in cohorts of 10, were administered either a single dose of 15 mg/kg esketamine, 7 daily doses of either 7.5 or 15 mg/kg esketamine or a vehicle control, and the test performed 30 minutes after dosing. Statistical evaluation was performed using an ordinary One-Way ANOVA, t Test and an Uncorrected Fisher's LSD comparisons test.

[7] = system: healthy male and female subjects; assay: Single dose crossover study in healthy volunteers, adverse events; assay type: in vivo, human
Source text: A total of 128 TEAEs (treatment-emergent adverse event) were reported by 15 of 16 (94%) subjects of which 79 TEAEs reported by 14 of 16 (88%) subjects were to be related to the study drug. Overall, a total of 14 of 128 TEAEs reported by 4 (25%) subjects were of moderate severity and 114 of 128 TEAEs reported by 15 (94%) subjects were of mild severity. […] The most frequently occurring adverse events (reported more than twice) were headache, dizziness, hypokinesia, feeling abnormal, fatigue, euphoric mood inappropriate affect, nausea and hyperhidrosis. Table 4 presents the frequency of the most frequently reported related TEAEs as a percentage of the subjects that experienced an adverse effect per treatment.

liver of Crl:CD(SD) rats = assay: In vivo single cell gel electrophoresis (comet) assay, liver; details: for median % tail intensity (% TI) in liver vs vehicle control: 3 doses, p<0.001; for lower benchmark dose (BMDL50), single slide median Tail Intensity: PROAST v63.3
[8] = plasma analyte after single 20 mg oral solution of esketamine hydrochloride
[9] = Day 28, male rats, 6 mg/kg oral gavage once daily
[10] = Day 28, male rats, 10 mg/kg oral gavage once daily

Question: What does the source list for CO[C@@]12[C@H](COC(N)=O)C3=C(C(=O)C(C)=C(N)C3=O)N1C[C@@H]1N[C@@H]12 [MMC, mitomycin C]?
Answer: structural chromosomal aberrations, % of the cells [1]: 13.3%; mean MI value ([1]; non-activated systems, positive control 0.6 and 0.3 μg/mL for 4- and 20-hour exposures): 9%

Question: What does the source list for N[C@]1(c2ccccc2Cl)CCCCC1=O [(S)-norketamine, (2S)-2-(2-Chlorophenyl)-2-(amino) cyclohexanone]?
Answer: AUC0-inf, Geometric mean (CV %) [2, 8]: 416.89 (19%) ng · h/ml; AUC0-t, Geometric mean (CV %) [2, 8]: 404.96 (19%) ng · h/ml; t1/2, Geometric mean (CV %) [2, 8]: 8.88 (26%) h; t1/2, Geometric mean (CV %) ([2]; plasma analyte after single 100 mg oral tablet of esketamine hydrochloride): 9.27 (25%) h; Toxicity (mitotic index), preliminary toxicity test [3]: Toxicity was not observed at any dose; clastogenicity, induction of structural and numerical chromosomal aberrations [3]: non-clastogenic

Question: What does the source list for CN[C@]1(c2ccccc2Cl)CCCCC1=O [esketamine, (2S)-2-(2-Chlorophenyl)-2-(methylamino) cyclohexanone]?
Answer: Cochran-Armitage test for dose response, structural aberrations [1]: positive for a dose response; Toxicity (≥45% reduction in MI relative to the vehicle control), preliminary toxicity test [1]: Toxicity was not observed at any dose; cytotoxicity (≥45% reduction in mitotic index relative to the vehicle control) ([1]; non-activated 4- and 20-hour treatment conditions): not observed at any esketamine dose; Dose normalized AUC0-inf ([4]; female rats, 2 mg/kg oral gavage): 29.0 (ng * h/ml)/(mg/kg); Dose normalized AUC0-inf ([4]; female rats, 10 mg/kg oral gavage): 44.0 (ng * h/ml)/(mg/kg); Dose normalized AUC0-inf ([4]; female rats, 20 mg/kg oral gavage): 49.8 (ng * h/ml)/(mg/kg); Dose normalized AUC0-inf ([4]; male rats, 6 mg/kg oral gavage): 17.2 (ng * h/ml)/(mg/kg); Dose normalized AUC0-inf ([4]; male rats, 10 mg/kg oral gavage): 18.1 (ng * h/ml)/(mg/kg); Dose normalized AUC0-inf ([4]; male rats, 30 mg/kg oral gavage): 19.5 (ng * h/ml)/(mg/kg); Dose normalized AUC0-t ([4]; Day 28, female rats, 2 mg/kg oral gavage once daily): 31.0 (ng * h/ml)/(mg/kg); Dose normalized AUC0-t ([4]; Day 28, female rats, 10 mg/kg oral gavage once daily): 51.3 (ng * h/ml)/(mg/kg); Dose normalized AUC0-t ([4]; Day 28, female rats, 20 mg/kg oral gavage once daily): 53.2 (ng * h/ml)/(mg/kg); Cmax [4, 9]: 113.1 ng/mL; Dose normalized AUC0-t [4, 9]: 10.2 (ng * h/ml)/(mg/kg); AUC0-t [4, 10]: 179 ng·h/mL; Dose normalized AUC0-t [4, 10]: 17.9 (ng * h/ml)/(mg/kg); Dose normalized AUC0-t ([4]; Day 28, male rats, 30 mg/kg oral gavage once daily): 19.2 (ng * h/ml)/(mg/kg); dose-normalized exposure, sex difference ([4]; after normalization for dose level differences): males had lower exposures than females; exposure Day 28 compared to Day 1 ([4]; exception: Cmax in females higher on Day 28): Exposures were similar on Day 28 compared to Day 1; increase of exposure with dose ([4]; females, 2 to 20 mg/kg/day): slightly greater than dose-proportional; increase of exposure with dose ([4]; males, 6 to 30 mg/kg/day): generally dose-proportional; effects on clinical signs, body weights, food consumption, ophthalmology, motor activity, functional observational battery, clinical pathology or anatomic pathology (Sprague Dawley rats [5]): no esketamine-related effects; mortality (Sprague Dawley rats [5]): no mortality; genotoxic changes as shown in Examples 1 and 2 (Sprague Dawley rats [6]): not identified; effect on immobility time (male Sprague Dawley rats): 42 % of control; t1/2, Geometric mean (CV %) [2, 8]: 2.91 (37%) h; related TEAE Dizziness, percentage of subjects ([7]; 0.3 mg/kg iv): 6%; related TEAE Euphoric mood, percentage of subjects ([7]; 0.3 mg/kg iv): 19%; related TEAE Fatigue, percentage of subjects ([7]; 0.3 mg/kg iv): 6%; related TEAE Feeling abnormal, percentage of subjects ([7]; 0.3 mg/kg iv): 13%; related TEAE Headache, percentage of subjects ([7]; 0.3 mg/kg iv): 19%; related TEAE Hypokinesia, percentage of subjects ([7]; 0.3 mg/kg iv): 6%; related TEAE Inappropriate affect, percentage of subjects ([7]; 0.3 mg/kg iv): 6%; related TEAE Nausea, percentage of subjects ([7]; 0.3 mg/kg iv): 6%; related TEAE Feeling abnormal, percentage of subjects ([7]; 20 mg oral solution): 19%; related TEAE Headache, percentage of subjects ([7]; 20 mg oral solution): 19%; related TEAE Inappropriate affect, percentage of subjects ([7]; 20 mg oral solution): 6%; related TEAE Dizziness, percentage of subjects ([7]; 20 mg oral tablet): 13%; related TEAE Fatigue, percentage of subjects ([7]; 20 mg oral tablet): 7%; related TEAE Feeling abnormal, percentage of subjects ([7]; 20 mg oral tablet): 7%; related TEAE Hyperhidrosis, percentage of subjects ([7]; 20 mg oral tablet): 7%; related TEAE Dizziness, percentage of subjects ([7]; 100 mg oral tablet): 13%; related TEAE Euphoric mood, percentage of subjects ([7]; 100 mg oral tablet): 13%; related TEAE Feeling abnormal, percentage of subjects ([7]; 100 mg oral tablet): 20%; related TEAE Headache, percentage of subjects ([7]; 100 mg oral tablet): 13%; related TEAE Hyperhidrosis, percentage of subjects ([7]; 100 mg oral tablet): 7%; related TEAE Hypokinesia, percentage of subjects ([7]; 100 mg oral tablet): 13%; related TEAE Inappropriate affect, percentage of subjects ([7]; 100 mg oral tablet): 7%; related TEAE Nausea, percentage of subjects ([7]; 100 mg oral tablet): 20%; number of TEAEs related to the study drug ([7]; all treatments): 79; total number of TEAEs ([7]; all treatments, 16 subjects): 128; number of TEAEs of mild severity ([7]; of 128 TEAEs): 114; number of TEAEs of moderate severity ([7]; of 128 TEAEs): 14; macroscopic examination (liver of Crl:CD(SD) rats; after 3 doses of treatment): no test item related lesions; group mean and median % TI values vs vehicle historical control range (liver of Crl:CD(SD) rats; female rats, 25 and 50 mg/kg/day): outside of the current vehicle historical control range; median % tail intensity (% TI) in liver vs vehicle control (liver of Crl:CD(SD) rats; female rats, 25 and 50 mg/kg/day oral gavage): Statistically significant increases; lower benchmark dose (BMDL50), single slide median Tail Intensity (liver of Crl:CD(SD) rats; female rats): 9.83 mg/kg/day; DNA strand breaks in the liver (liver of Crl:CD(SD) rats; male and female rats, oral gavage): evidence of causing an increase; Hedgehog cells in the liver (liver of Crl:CD(SD) rats; male or female rats, any dose level): No Hedgehog cells were observed; group mean and median % TI values vs vehicle historical control range (liver of Crl:CD(SD) rats; male rats, 75 mg/kg/day): outside of the current vehicle historical control range; median % tail intensity (% TI) in liver vs vehicle control (liver of Crl:CD(SD) rats; male rats, 75 mg/kg/day oral gavage): Statistically significant increases; lower benchmark dose (BMDL50), single slide median Tail Intensity (liver of Crl:CD(SD) rats; male rats): 27.31 mg/kg/day

Question: Which “Cmax, Geometric mean (CV %)” value ([2]; plasma analyte after single 20 mg oral solution of esketamine hydrochloride, 15 subjects) does the source give for N[C@]1(c2ccccc2Cl)CCC[C@H](O)C1=O [(2S,6S)-OH-Norketamine, (2S,6S)-2-Amino-2-(2-chlorophenyl)-6-hydroxycyclohexanone] here?
Answer: 46.46 (28%) ng/ml
